The values below come from ChEMBL document CHEMBL1144896 (2003).

For test [1], the system named is BJ. The test can be described thus: hTERT-SEAP (Human telomerase reverse transcriptase-SEAP) activity in immortalized hTERT-BJI at 2.2 uM concentration and level of cell viability determined in MTT assay. Format: functional. (Tetrazolium dyes change colour on reduction, which living cells bring about.)
In test [2] the test system is BJ. The test can be described thus: Compound was tested for cytomegalovirus or (pPCMV-SEAP) activity in immortalized hTERT-BJ1 at 2.0 uM concentration. Format: functional, Homo sapiens.
Test [3] has as its system BJ. The test can be described thus: Compound was tested for cytomegalovirus or (pPCMV-SEAP) activity in immortalized hTERT-BJ1 at 22 uM concentration. In kind it is functional, Homo sapiens.
Test [4] has as its system BJ. Put plainly: Compound was tested for cytomegalovirus or (pPCMV-SEAP) activity in immortalized hTERT-BJ1 at 220 uM concentration. Format: functional, Homo sapiens.
For test [5], the system named is BJ. Put plainly: Compound was tested for human telomerase reverse transcriptase-SEAP (hTERT-SEAP) activity in immortalized hTERT-BJI at 2.2 uM concentration. In kind it is functional.
The test system of test [6] is BJ. Put plainly: Compound was tested for human telomerase reverse transcriptase-SEAP (hTERT-SEAP) activity in immortalized hTERT-BJI at 22 uM concentration. In kind it is functional.
Test [7] deals with BJ. Put plainly: Compound was tested for human telomerase reverse transcriptase-SEAP (hTERT-SEAP) activity in immortalized hTERT-BJI at 220.0 uM concentration. Format: functional.
Test [8] has as its system BJ. Put plainly: hTERT-SEAP (Human telomerase reverse transcriptase-SEAP) activity in immortalized hTERT-BJI at 22 uM concentration and level of cell viability determined in MTT assay. In kind it is functional.
Test [9] relates to BJ. Put plainly: hTERT-SEAP (Human telomerase reverse transcriptase-SEAP) activity in immortalized hTERT-BJI at 220.0 uM concentration and level of cell viability determined in MTT assay. In kind it is functional.
Test [10] deals with BJ. Put plainly: pPCMV-SEAP (cytomegalovirus-SEAP) activity in immortalized hTERT-BJ1 at 220 uM concentration and level of cell viability determined in MTT assay. In kind it is functional, Homo sapiens.
Test [11] concerns BJ. Put plainly: pPCMV-SEAP (cytomegalovirus-SEAP) activity in immortalized hTERT-BJ1 at 2.0 uM concentration and level of cell viability determined in MTT assay. In kind it is functional, Homo sapiens.
Test [12] has as its system BJ. Put plainly: pPCMV-SEAP (cytomegalovirus-SEAP) activity in immortalized hTERT-BJ1 at 22 uM concentration and level of cell viability determined in MTT assay. In kind it is functional, Homo sapiens.
Test [13] deals with NCI-H1299. The test can be described thus: hTERT-SEAP (Human telomerase reverse transcriptase-SEAP) activity in non-small cell lung cancer H1299 cell at 220.0 uM concentration and level of cell viability determined in MTT assay. In kind it is functional.
For test [14], the system named is NCI-H1299. The test can be described thus: Compound was tested for human telomerase reverse transcriptase-SEAP (hTERT-SEAP) activity in non-small cell lung cancer H1299 cell at 22 uM concentration. In kind it is functional.
Test [15] relates to NCI-H1299. Put plainly: Compound was tested for human telomerase reverse transcriptase-SEAP (hTERT-SEAP) activity in non-small cell lung cancer H1299 cell at 220.0 uM concentration. Format: functional.
The test system of test [16] is NCI-H1299. Put plainly: Compound was tested for human telomerase reverse transcriptase-SEAP (hTERT-SEAP) activity in non-small cell lung cancer H1299 cell at 2.2 uM concentration. In kind it is functional.
For test [17], the system named is NCI-H1299. Put plainly: hTERT-SEAP (Human telomerase reverse transcriptase-SEAP) activity in non-small cell lung cancer H1299 cell at 2.2 uM concentration and level of cell viability determined in MTT assay. Format: functional.
The test system of test [18] is BJ. The test can be described thus: hTERT-SEAP (Human telomerase reverse transcriptase-SEAP) activity in immortalized hTERT-BJI at 18 uM concentration and level of cell viability determined in MTT assay. In kind it is functional.
Test [19] deals with BJ. Put plainly: hTERT-SEAP (Human telomerase reverse transcriptase-SEAP) activity in immortalized hTERT-BJI at 180.0 uM concentration and level of cell viability determined in MTT assay. In kind it is functional.
The test system of test [20] is BJ. The test can be described thus: Compound was tested for cytomegalovirus or (pPCMV-SEAP) activity in immortalized hTERT-BJ1 at 1.8 uM concentration. Format: functional, Homo sapiens.
Test [21] has as its system BJ. Put plainly: Compound was tested for cytomegalovirus or (pPCMV-SEAP) activity in immortalized hTERT-BJ1 at 18 uM concentration. In kind it is functional, Homo sapiens.
The test system of test [22] is BJ. Put plainly: Compound was tested for cytomegalovirus or (pPCMV-SEAP) activity in immortalized hTERT-BJ1 at 180 uM concentration. In kind it is functional, Homo sapiens.
The test system of test [23] is BJ. The test can be described thus: Compound was tested for human telomerase reverse transcriptase-SEAP (hTERT-SEAP) activity in immortalized hTERT-BJI at 18 uM concentration. Format: functional.
The subject of test [24] is BJ. The test can be described thus: Compound was tested for human telomerase reverse transcriptase-SEAP (hTERT-SEAP) activity in immortalized hTERT-BJI at 180.0 uM concentration. In kind it is functional.
Test [25] has as its system BJ. Put plainly: pPCMV-SEAP (cytomegalovirus-SEAP) activity in immortalized hTERT-BJ1 at 1.8 uM concentration and level of cell viability determined in MTT assay. In kind it is functional, Homo sapiens.
Test [26] deals with BJ. Put plainly: pPCMV-SEAP (cytomegalovirus-SEAP) activity in immortalized hTERT-BJ1 at 18 uM concentration and level of cell viability determined in MTT assay. In kind it is functional, Homo sapiens.
The test system of test [27] is BJ. The test can be described thus: pPCMV-SEAP (cytomegalovirus-SEAP) activity in immortalized hTERT-BJ1 at 180 uM concentration and level of cell viability determined in MTT assay. In kind it is functional, Homo sapiens.
Test [28] relates to NCI-H1299. Put plainly: Compound was tested for human telomerase reverse transcriptase-SEAP (hTERT-SEAP) activity in non-small cell lung cancer H1299 cell at 1.8 uM concentration. In kind it is functional.
The subject of test [29] is NCI-H1299. The test can be described thus: Compound was tested for human telomerase reverse transcriptase-SEAP (hTERT-SEAP) activity in non-small cell lung cancer H1299 cell at 18 uM concentration. In kind it is functional.
Test [30] relates to NCI-H1299. Put plainly: Compound was tested for human telomerase reverse transcriptase-SEAP (hTERT-SEAP) activity in non-small cell lung cancer H1299 cell at 180.0 uM concentration. In kind it is functional.
Test [31] has as its system NCI-H1299. The test can be described thus: hTERT-SEAP (Human telomerase reverse transcriptase-SEAP) activity in non-small cell lung cancer H1299 cell at 1.8 uM concentration and level of cell viability determined in MTT assay. In kind it is functional.
Test [32] deals with NCI-H1299. Put plainly: hTERT-SEAP (Human telomerase reverse transcriptase-SEAP) activity in non-small cell lung cancer H1299 cell at 18 uM concentration and level of cell viability determined in MTT assay. In kind it is functional.
For test [33], the system named is NCI-H1299. The test can be described thus: hTERT-SEAP (Human telomerase reverse transcriptase-SEAP) activity in non-small cell lung cancer H1299 cell at 180.0 uM concentration and level of cell viability determined in MTT assay. Format: functional.

`COc1ccc(CSc2cccc3c2C(=O)c2cccc(SCc4ccc(OC)cc4)c2C3=O)cc1`: the Relative viability was determined as 119% in the test on BJ [1]; 98% in the test with BJ [8]; 62% in the test with BJ [9]; 52% in the test on BJ [10]; 116% with BJ [11]; 67% in the test with BJ [12]. For the same compound, the Relative viability in the test on NCI-H1299 [13] is listed as 42%; with NCI-H1299 [17], 89%. Moreover, the “Relative SEAP activity” value turned out to be 103% in the test with BJ [2]; 102% in the test with BJ [3]; 100% in the test on BJ [4]; 142% in the test on BJ [5]; 141% with BJ [6]; 118% with BJ [7]. The “Relative SEAP activity” value worked out at 96% in the test on NCI-H1299 [14], 88% in the test on NCI-H1299 [15] and 92% in the test on NCI-H1299 [16].

In the case of `O=C(Oc1cccc2c1C(=O)c1cccc(OC(=O)c3ccc(Cl)cc3Cl)c1C2=O)c1ccc(Cl)cc1Cl`, the Relative viability in the test on BJ [18] was found to be 102%; in the test with BJ [19], 96%; in the test with BJ [25], 105%; with BJ [26], 105%; in the test on BJ [27], 108%; in the test with NCI-H1299 [31], 108%. Also, the Relative viability is given as 103% with NCI-H1299 [32] and 77% in the test with NCI-H1299 [33]. For the same compound, the “Relative SEAP activity” value in the test with BJ [20] amounted to 99%; with BJ [21], 111%; in the test with BJ [22] it was 121%; in the test on BJ [23], 150%; in the test with BJ [24], 160%; in the test with NCI-H1299 [28] it was 100%. Further, the “Relative SEAP activity” value in the test on NCI-H1299 [29] worked out at 102%; in the test on NCI-H1299 [30], 96%.
